Assay results from PubChem BioAssay (NCI).
Several values for one entry are separate records, joined by “and”; a condition that tells them apart may be missing. Equal entries are not always repeated.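 Method: 48-hour compound exposure of cells in 96-well plates, five concentrations, linear interpolation of endpoints. GI50 marks 50% less growth. TGI is the concentration that stops growth completely.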

Experiments:
Experiment in all cases: NCI-60 cell line screen, 48 h
[1] = test system: PC-3 prostate
[2] = test system: KM12 colon
[3] = test system: OVCAR-4 ovarian
[4] = test system: LOX IMVI melanoma
[5] = test system: UACC-62 melanoma
[6] = test system: T-47D breast
[7] = test system: U251 CNS
[8] = test system: RXF 393 renal
[9] = test system: SK-MEL-2 melanoma
[10] = test system: SK-MEL-5 melanoma

Q: Which results are given for `O=C(c1ccc(OCCN2CCCCC2)cc1)c1c(-c2ccc(O)cc2)sc2cc(O)ccc12`?
A: GI50 [1]: 3.9 µM and 11.7 µM; TGI [1]: 18.9 µM and 35.7 µM; GI50 [2]: 4.49 µM and 9.32 µM; TGI [2]: 15.3 µM and 34.3 µM; GI50 [3]: 7.8 µM and 12.1 µM; TGI [3]: 20.5 µM and 36.8 µM; GI50 [4]: 1.76 µM and 4.06 µM; TGI [4]: 3.45 µM and 15.1 µM; GI50 [5]: 12 µM and 13.7 µM; TGI [5]: 25.8 µM and 27.2 µM; GI50 [6]: 2.77 µM and 5.89 µM; TGI [6]: 20 µM and > 50.2 µM; GI50 [7]: 5.53 µM and 7.84 µM; TGI [7]: 19.6 µM and 21.1 µM; GI50 [8]: 5.2 µM and 4.32 µM; TGI [8]: 19.1 µM and 15.9 µM; GI50 [9]: 15.8 µM and 14.9 µM; TGI [9]: 35.2 µM and 33.8 µM; GI50 [10]: 9.51 µM and 5.32 µM; TGI [10]: 21.4 µM and 16.9 µM

Q: With `COC(=O)[C@H]1[C@@H](O)[C@@]2(O)c3c(OC)cc(O[C@@H]4O[C@@H]([C@H](O)CO)CO[C@H]4OC)cc3O[C@@]2(c2ccc(OC)cc2)[C@@H]1c1ccccc1` as the compound, how does the GI50 [1] read?
A: 0.00405 µM

Q: What about the TGI [1] of the same compound?
A: 0.0338 µM

Q: And the GI50 [2]?
A: 0.00329 µM

Q: And the TGI [2]?
A: 0.0333 µM

Q: And the GI50 [3]?
A: 0.00506 µM

Q: And the TGI [3]?
A: 0.0484 µM

Q: What about the GI50 [4] of the same compound?
A: 0.00263 µM

Q: And the TGI [4]?
A: 0.00986 µM

Q: And the GI50 [5]?
A: 0.00694 µM

Q: And the TGI [5]?
A: 0.0322 µM

Q: What about the GI50 [6] of the same compound?
A: 0.00226 µM

Q: And the TGI [6]?
A: 0.0199 µM

Q: What about the GI50 [7] of the same compound?
A: 0.00352 µM

Q: And the TGI [7]?
A: 0.0202 µM

Q: What about the GI50 [8] of the same compound?
A: 0.00944 µM

Q: What about the TGI [8] of the same compound?
A: 0.0436 µM

Q: And the GI50 [9]?
A: 0.00354 µM

Q: What about the TGI [9] of the same compound?
A: 0.0158 µM

Q: And the GI50 [10]?
A: 0.00662 µM

Q: What about the TGI [10] of the same compound?
A: 0.0494 µM

Q: What does the source list for `NC(=O)/C(=C\c1ccncc1)c1cccc2ccccc12`?
A: TGI [1]: > 100 µM; TGI [2]: > 100 µM; TGI [3]: > 100 µM; TGI [4]: > 100 µM; TGI [5]: > 100 µM; TGI [6]: > 100 µM; TGI [7]: > 100 µM; TGI [8]: > 100 µM; TGI [9]: > 100 µM; TGI [10]: > 100 µM

Q: With `COc1cc2c(c(OC)c1O)-c1ccc(OC)c(=O)cc1[C@@H](NC(=O)C(F)(F)F)CC2` as the compound, how does the TGI [1] read?
A: 0.588 µM

Q: What about the TGI [2] of the same compound?
A: > 100 µM

Q: What about the TGI [3] of the same compound?
A: > 100 µM

Q: What about the TGI [4] of the same compound?
A: > 100 µM

Q: What about the TGI [5] of the same compound?
A: > 100 µM

Q: And the TGI [6]?
A: > 100 µM

Q: And the TGI [7]?
A: > 100 µM

Q: And the TGI [10]?
A: 0.0668 µM

Q: What does the source list for `CCN1C(=O)N(CC)C2C1NN=c1s/c(=C\c3ccccc3F)c(=O)n12` (stereo unspecified)?
A: GI50 [1]: 0.04 µM; TGI [1]: > 100 µM; GI50 [2]: 0.0278 µM; TGI [2]: > 48.9 µM; GI50 [3]: 0.0668 µM; TGI [3]: > 100 µM; GI50 [4]: 0.0411 µM; TGI [4]: > 100 µM; GI50 [5]: 0.0505 µM; TGI [5]: > 80.4 µM; GI50 [6]: 35.7 µM; TGI [6]: > 100 µM; GI50 [7]: 0.0354 µM; TGI [7]: > 100 µM; GI50 [8]: 0.0224 µM; TGI [8]: 1.36 µM; GI50 [9]: 0.0489 µM; TGI [9]: > 38.9 µM; GI50 [10]: 0.0289 µM; TGI [10]: 0.203 µM

Q: With `O=C1/C=C/[C@@H](O)[C@@H]2C[C@@H](O)C[C@H]2/C=C/CCC[C@H](CCc2ccc(C(F)(F)F)cc2)O1` as the compound, how does the GI50 [1] read?
A: 0.401 µM

Q: What about the TGI [1] of the same compound?
A: > 83.3 µM

Q: And the GI50 [3]?
A: 0.198 µM

Q: What about the TGI [3] of the same compound?
A: 2.78 µM

Q: And the GI50 [4]?
A: 0.161 µM

Q: And the TGI [4]?
A: 0.423 µM

Q: What about the GI50 [5] of the same compound?
A: 0.169 µM

Q: And the TGI [5]?
A: 17.3 µM

Q: What about the GI50 [6] of the same compound?
A: 0.318 µM

Q: And the TGI [6]?
A: 59.8 µM

Q: What about the GI50 [7] of the same compound?
A: 0.272 µM

Q: What about the TGI [7] of the same compound?
A: 21.3 µM

Q: What about the GI50 [8] of the same compound?
A: 0.126 µM

Q: And the TGI [8]?
A: 0.669 µM

Q: What about the GI50 [9] of the same compound?
A: 0.349 µM

Q: What about the TGI [9] of the same compound?
A: 1.41 µM

Q: And the GI50 [10]?
A: 0.0257 µM

Q: What about the TGI [10] of the same compound?
A: 0.0647 µM

Q: `COC(=O)C(Cc1cnc[nH]1)NC(=O)CNC(=O)CCCn1c(=O)c2c3ccccc3n(C)c2n2nnc(-c3ccccc3)c12` (stereo unspecified) was tested. Which GI50 [1] did it give?
A: 30.1 µM

Q: What about the TGI [1] of the same compound?
A: > 100 µM

Q: What about the GI50 [2] of the same compound?
A: > 100 µM

Q: And the TGI [2]?
A: > 100 µM

Q: What about the GI50 [3] of the same compound?
A: > 100 µM

Q: And the TGI [3]?
A: > 100 µM

Q: What about the GI50 [4] of the same compound?
A: > 100 µM

Q: And the TGI [4]?
A: > 100 µM

Q: And the GI50 [5]?
A: > 100 µM

Q: And the TGI [5]?
A: > 100 µM

Q: And the GI50 [6]?
A: > 100 µM

Q: What about the TGI [6] of the same compound?
A: > 100 µM

Q: And the GI50 [7]?
A: > 100 µM

Q: And the TGI [7]?
A: > 100 µM

Q: What about the GI50 [8] of the same compound?
A: > 100 µM

Q: And the TGI [8]?
A: > 100 µM

Q: And the GI50 [9]?
A: > 100 µM

Q: And the TGI [9]?
A: > 100 µM

Q: And the GI50 [10]?
A: > 100 µM

Q: What about the TGI [10] of the same compound?
A: > 100 µM
